Reference: patent US11071731B2, “Allosteric modulators of the mu opioid receptor” (Chiromics, LLC, priority 2017, dated 2021)

What was measured:
mu opioid receptor (MOR) [1] = target: T1, mu opioid receptor (MOR) (Homo sapiens, UniProt P35372); experiment: PathHunter β-arrestin recruitment assay, PAM mode with EC20 endomorphin-1; format: cell-based
Procedure: The effects of MOR PAMs and MOR SAMs on receptor activity were assayed using the PathHunter enzyme complementation assay technology (DiscoveRx, CA). A description of the technology employed is as follows.
Beta-Arrestin Pathway: The PathHunter β-arrestin assay monitors the activation of a GPCR in a homogenous, non-imaging assay format using a technology developed by DiscoveRx called Enzyme Fragment Complementation (EFC) with beta-galactosidase (β-Gal) as the functional reporter. […] EA is fused to β-Arrestin and ED is fused to the GPCR of interest. When the GPCR is activated and β-arrestin is recruited to the receptor, ED and EA complementation occurs, restoring β-gal activity, which is measured using chemiluminescent PathHunter Detection Reagents.
In this manner an EC50 for each test compound, and percent maximal response for each test compound, were determined for both the β-arrestin and cAMP pathways. Though the pharmacological effects of a given signal bias can be hypothesized (Raehal et al. (2011) Pharmacol. Rev. 63:1001-1019), it is not possible to know with certainty which bias ratio will be most advantageous in a clinical setting. […] Kenakin 2015a, supra. The information associated with the compounds detailed herein is the first large data set available for the prediction of ligand bias for an MOR PAM.

mu opioid receptor (MOR) [2] = target: T1, mu opioid receptor (MOR); experiment: Hit Hunter cAMP signaling assay (adenylyl cyclase inhibition), PAM mode with EC20 endomorphin-1; format: cell-based
[3] = maximal response for β-arrestin recruitment
[4] = β-arrestin recruitment, read-out: β-arr. EC50
[5] = adenylyl cyclase inhibition, read-out: cAMP EC50
[6] = maximal response for adenylyl cyclase inhibition
[7] = cAMP EC50, adenylyl cyclase inhibition
[8] = maximal response, β-arrestin recruitment
[9] = maximal response, adenylyl cyclase inhibition

T1 sequence (P35372 whole entry): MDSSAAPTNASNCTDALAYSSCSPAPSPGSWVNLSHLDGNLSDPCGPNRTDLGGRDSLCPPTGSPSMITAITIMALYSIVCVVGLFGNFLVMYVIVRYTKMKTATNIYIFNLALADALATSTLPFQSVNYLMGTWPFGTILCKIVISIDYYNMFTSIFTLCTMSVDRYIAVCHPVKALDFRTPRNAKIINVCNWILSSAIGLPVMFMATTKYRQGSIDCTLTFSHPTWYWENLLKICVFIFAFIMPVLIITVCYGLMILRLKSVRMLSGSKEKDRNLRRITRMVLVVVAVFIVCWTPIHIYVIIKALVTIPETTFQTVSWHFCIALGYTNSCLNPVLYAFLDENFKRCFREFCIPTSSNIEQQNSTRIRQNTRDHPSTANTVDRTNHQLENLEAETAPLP

SMILES	β-arr Max. Resp. (mu opioid receptor (MOR) [1]; [3])	EC50 (mu opioid receptor (MOR) [1]; [4]) [µM]	EC50 (mu opioid receptor (MOR) [2]; [5]) [µM]	cAMP Max. Resp. (mu opioid receptor (MOR) [2]; [6])	EC50 (mu opioid receptor (MOR) [2]; [7]) [µM]	other results
O=S(=O)(c1ccc(Cl)cc1)N1CCCCC1c1ccc(Br)c(F)c1 (racemic) [compound 71]	F (F represents a maximal response of > 60%)	> 2.1	> 2.1	D (D represents a maximal response of < 40%)	–	β-arrestin Max Response (mu opioid receptor (MOR) [1]; β-arrestin recruitment, activity switching by MOR PAMs): F (F represents a maximal response of >60%); EC50 (mu opioid receptor (MOR) [1]; β-arrestin recruitment, activity switching by MOR PAMs, read-out: β-arrestin EC50): > 2.1 µM; cAMP Max Resp. (mu opioid receptor (MOR) [2]; adenylyl cyclase inhibition, activity switching by MOR PAMs): D (D represents a maximal response of < 40%); EC50 (mu opioid receptor (MOR) [2]; adenylyl cyclase inhibition, activity switching by MOR PAMs, read-out: cAMP EC50): > 2.1 µM
Fc1ccc(C2CCCCN2c2nc(Cl)ncc2F)cc1 (centres unmarked) [compound 127]	F (F represents a maximal response of > 60%)	< 0.7	–	E (E represents a maximal response of 40-60%)	0.7 to 2.1	–
COc1ncc(F)c(N2CCCCC2c2ccc(OC)c(Br)c2)n1 (centres unmarked) [compound 225]	F (F represents a maximal response of > 60%)	> 2.1	–	F (F represents a maximal response of > 60%)	> 2.1	–
[2H]C1(c2cccc(C(F)(F)F)c2)C(F)CCCN1c1nc(Cl)ncc1F (single isomer, unassigned) [compound 209]	F (F represents a maximal response of > 60%)	0.7 to 2.1	–	D (D represents a maximal response of < 40%)	–	–
CN(C)CC(=O)N1CCN(c2nc(Cl)ncc2F)C(c2cc(F)cc(C(F)(F)F)c2)C1 (racemic) [Compound 306]	D (D represents a maximal response of < 40%)	> 2.1	> 2.1	F (F represents a maximal response of > 60%)	–	–
[2H]C1(c2ccc(F)c(Br)c2)C(F)CCCN1S(=O)(=O)c1ccc(Cl)cc1 (centres unmarked) [Compound 29]	F (F represents a maximal response of > 60%)	–	–	E (E represents a maximal response of 40-60%)	–	–
O=S(=O)(Cc1ccc(Cl)cc1)N1CCCCC1c1cccc(C(F)(F)F)c1 (centres unmarked) [Compound 22]	F (F represents a maximal response of > 60%)	> 2.1	> 2.1	D (D represents a maximal response of < 40%)	–	–
Fc1cnc(Cl)nc1N1CCOCC1c1cccc(C(F)(F)F)c1 (racemic) [Compound 188]	F (F represents a maximal response of > 60%)	> 2.1	0.7 to 2.1	E (E represents a maximal response of 40-60%)	–	–
Fc1ccc(C2CCCCN2c2nc(Cl)ncc2F)nc1 (centres unmarked) [compound 372]	D (D represents a maximal response of < 40%)	< 0.7	–	D (D represents a maximal response of < 40%)	< 0.7	–
Cc1ccc(C2CCCCN2c2nc(Cl)ncc2F)cn1 (centres unmarked) [compound 411]	D (D represents a maximal response of < 40%)	< 0.7	–	D (D represents a maximal response of < 40%)	< 0.7	–
Fc1ccc(C2CCCCN2c2nc(Cl)ncc2F)cc1C(F)(F)F (single isomer, unassigned) [compound 422]	–	< 0.7	–	–	< 0.7	β-arr Max. Resp. (mu opioid receptor (MOR) [1]; [8]): D (D represents a maximal response of < 40%); cAMP Max. Resp. (mu opioid receptor (MOR) [2]; [9]): D (D represents a maximal response of < 40%)
COc1ccc(C2CCCCN2c2cc(F)cc(Cl)n2)cc1Br (centres unmarked) [compound 215]	F (F represents a maximal response of > 60%)	0.7 to 2.1	–	D (D represents a maximal response of < 40%)	> 2.1	–
Cc1ncc(F)c(N2CCCCC2c2cccc(F)n2)n1 (centres unmarked) [compound 270]	D (D represents a maximal response of < 40%)	> 2.1	–	D (D represents a maximal response of < 40%)	> 2.1	–
Fc1ccc(C2CCCCN2Cc2cc(Cl)ccn2)cc1Cl (centres unmarked) [compound 145]	F (F represents a maximal response of > 60%)	> 2.1	–	E (E represents a maximal response of 40-60%)	0.7 to 2.1	–
O=S(=O)(c1ccc(Cl)cc1)N1CCCCC1c1ccc(Cl)c(Br)c1 (racemic) [compound 74]	F (F represents a maximal response of > 60%)	> 2.1	> 2.1	E (E represents a maximal response of 40-60%)	–	–
CC1CC(c2cc(F)cc(C(F)(F)F)c2)N(c2nc(Cl)ncc2F)C1 (centres unmarked) [compound 450]	–	> 2.1	> 2.1	–	–	β-arr Max. Resp. (mu opioid receptor (MOR) [1]; [8]): F (F represents a maximal response of > 60%); cAMP Max. Resp. (mu opioid receptor (MOR) [2]; [9]): E (E represents a maximal response of 40-60%)
Fc1cnc(Cl)nc1N1CCCCC1c1cccc(Cl)n1 (centres unmarked) [compound 276]	E (E represents a maximal response of 40-60%)	–	–	D (D represents a maximal response of < 40%)	–	EC50 (mu opioid receptor (MOR) [1]; β-arr. EC50, β-arrestin recruitment): > 2.1 µM; EC50 (mu opioid receptor (MOR) [2]): 0.7 to 2.1 µM
Cc1cccc(S(=O)(=O)N2CCCCC2c2cccc(C(F)(F)F)c2)c1 (centres unmarked) [Compound 27]	F (F represents a maximal response of > 60%)	> 2.1	> 2.1	E (E represents a maximal response of 40-60%)	–	–
Fc1cc(Cl)cc(CN2CCCCC2c2cccc(C(F)(F)F)n2)c1 (centres unmarked) [compound 164]	F (F represents a maximal response of > 60%)	0.7 to 2.1	–	E (E represents a maximal response of 40-60%)	< 0.7	–
N#Cc1cc(C2CCCCN2S(=O)(=O)c2ccc(Cl)cc2)ccc1F (racemic) [compound 58]	F (F represents a maximal response of > 60%)	> 2.1	> 2.1	D (D represents a maximal response of < 40%)	–	–
Cc1ccc(C2C(C)CCN2S(=O)(=O)c2ccc(Cl)cc2)cc1Br (mixture of isomers) [Compound 104]	F (F represents a maximal response of > 60%)	0.7 to 2.1	0.7 to 2.1	D (D represents a maximal response of < 40%)	–	–
Fc1cnc(Cl)nc1N1CCCCC1c1cccc2ccncc12 (centres unmarked) [compound 286]	D (D represents a maximal response of < 40%)	> 2.1	–	D (D represents a maximal response of < 40%)	> 2.1	–
